Patent publication US20140154264A1, “COMPOSITIONS AND METHODS FOR TREATING CANCER AND DISEASES AND CONDITIONS RESPONSIVE TO CELL GROWTH INHIBITION” (THE REGENTS OF THE UNIVERSITY OF CALIFORNIA, priority 2011, published 2014)
Like-named read-outs stand apart in the source and are kept apart here.

How the values were obtained:
FG and FG-β3 cells = test: tumor sphere formation assay; format: cell-based, human; settings: for effect of αvβ3 expression on drug resistance: in vitro, FG cells lacking vs expressing αvβ3
Method: (n=3 independent experiments); as discussed in detail in Example 1, below.
Therefore, we examined whether αvβ3 expression also promotes resistance to other growth factor inhibitors and/or cytotoxic agents.
Immunoblot analysis of FG, FG-β3 and FG-β3 stably expressing non-silencing or RalB-specific ShRNA, grown in suspension and treated with erlotinib (0.5 μM). pTBK1 refers to phospho-S172 TBK1, p-p65 NF-κB refers to phospho-p65 NF-κB S276, pFAK refers to phospho-FAK Tyr 861. […] Error bars represent s.d. (n=3 independent experiments). *P<0.05, **P<0.001, NS=not significant. Immunoblot analysis showing NF-κB WT and S276D NF-κB FLAG transfection efficiency. (c) Tumor spheres formation assay of FG-β3 treating with non-silencing (shCTRL) or NF-κB-specific shRNA and exposed to erlotinib (0.5 μM). Error bars represent s.d. (n=3 independent experiments). *P<0.05, NS=not significant. (d) Dose response in FG-β3 cells treated with erlotinib (10 nM to 5 μM), lenalidomide (10 nM to 5 μM) or a combination of erlotinib (10 nM to 5 μM) and lenalidomide (1 μM). Error bars represent s.d. (n=3 independent experiments). *P<0.05, NS=not significant.
Tumor spheres formation assays were performed essentially as described previously^17. Briefly, cells were seeded at 1000 to 2000 cells per well and grown for 12 days to 3 weeks. Cells were treated with vehicle (DMSO), erlotinib (10 nM to 5 μM), lapatinib (10 nM to 5 μM), gemcitabine (0.001 nM to 5 μM), OSI-906 (10 nM to 5 μM), lenalidomide (10 nM to 5 μM), or cisplatin (10 nM to 5 μM), diluted in DMSO. The media was replaced with fresh inhibitor every day for erlotinib, lapatinib, lenalidomide and 3 times a week for cisplatin and gemcitabine. Colonies were stained with crystal violet and scored with an Olympus SZH10 microscope. Survival curves were generated at least with five concentration points.

avb3 = avb3 (Homo sapiens, UniProt P05106+P06756); test: cell-free integrin binding assay
avb3, sequence (P06756 31-889 limits assumed): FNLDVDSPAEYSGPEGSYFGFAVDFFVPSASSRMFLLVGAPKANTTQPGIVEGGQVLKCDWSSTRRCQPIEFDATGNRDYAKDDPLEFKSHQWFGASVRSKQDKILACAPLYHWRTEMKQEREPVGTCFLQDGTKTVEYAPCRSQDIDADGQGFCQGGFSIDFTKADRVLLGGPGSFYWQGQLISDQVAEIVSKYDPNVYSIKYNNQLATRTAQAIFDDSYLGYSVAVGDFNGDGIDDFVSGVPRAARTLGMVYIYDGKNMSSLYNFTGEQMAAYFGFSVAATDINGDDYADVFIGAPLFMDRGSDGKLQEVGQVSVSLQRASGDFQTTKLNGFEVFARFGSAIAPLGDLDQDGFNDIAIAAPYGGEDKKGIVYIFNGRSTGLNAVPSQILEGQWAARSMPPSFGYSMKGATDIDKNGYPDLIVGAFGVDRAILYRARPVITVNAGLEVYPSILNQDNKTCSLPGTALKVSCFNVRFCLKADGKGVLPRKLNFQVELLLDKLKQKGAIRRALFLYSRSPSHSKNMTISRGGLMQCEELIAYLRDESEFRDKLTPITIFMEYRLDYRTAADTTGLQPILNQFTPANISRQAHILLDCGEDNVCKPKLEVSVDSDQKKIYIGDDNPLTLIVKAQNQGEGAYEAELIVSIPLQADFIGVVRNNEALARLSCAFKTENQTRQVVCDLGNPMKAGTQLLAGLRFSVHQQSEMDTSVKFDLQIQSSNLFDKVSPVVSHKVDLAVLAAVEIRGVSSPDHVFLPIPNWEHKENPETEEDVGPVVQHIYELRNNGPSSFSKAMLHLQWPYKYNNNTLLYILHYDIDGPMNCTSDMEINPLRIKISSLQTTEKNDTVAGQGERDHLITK
avb3, sequence (P06756 891-1048 limits assumed): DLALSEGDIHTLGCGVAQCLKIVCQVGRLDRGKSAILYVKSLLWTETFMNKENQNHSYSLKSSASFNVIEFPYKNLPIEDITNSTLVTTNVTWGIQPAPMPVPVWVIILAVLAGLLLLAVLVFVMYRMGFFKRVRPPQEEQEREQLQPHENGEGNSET
avb3, sequence (P05106 27-788): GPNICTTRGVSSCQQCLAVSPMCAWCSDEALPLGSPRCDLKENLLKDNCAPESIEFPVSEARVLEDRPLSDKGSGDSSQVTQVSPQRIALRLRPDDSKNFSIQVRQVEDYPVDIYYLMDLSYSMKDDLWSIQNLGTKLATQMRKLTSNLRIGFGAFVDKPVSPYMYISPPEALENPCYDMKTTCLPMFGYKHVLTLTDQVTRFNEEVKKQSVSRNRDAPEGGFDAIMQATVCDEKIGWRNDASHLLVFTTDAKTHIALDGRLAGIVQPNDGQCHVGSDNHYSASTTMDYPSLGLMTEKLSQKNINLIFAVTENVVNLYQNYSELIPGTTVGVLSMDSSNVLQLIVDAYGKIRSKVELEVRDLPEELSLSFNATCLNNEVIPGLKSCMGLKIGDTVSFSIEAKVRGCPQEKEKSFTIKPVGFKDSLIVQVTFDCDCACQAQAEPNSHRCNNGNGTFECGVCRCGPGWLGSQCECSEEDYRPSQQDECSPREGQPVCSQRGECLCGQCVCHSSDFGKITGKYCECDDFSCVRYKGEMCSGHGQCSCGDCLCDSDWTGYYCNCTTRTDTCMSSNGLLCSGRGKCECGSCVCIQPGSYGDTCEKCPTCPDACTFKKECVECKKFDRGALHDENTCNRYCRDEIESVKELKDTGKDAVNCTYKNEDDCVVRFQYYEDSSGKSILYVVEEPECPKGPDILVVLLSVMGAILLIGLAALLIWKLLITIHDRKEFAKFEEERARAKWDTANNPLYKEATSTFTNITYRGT

avb5 = avb5 (Homo sapiens, UniProt P06756+P18084); test: cell-free integrin binding assay
avb5, sequence (P06756 31-889 limits assumed): as the sequence (P06756 31-889 limits assumed) above
avb5, sequence (P06756 891-1048 limits assumed): as the sequence (P06756 891-1048 limits assumed) above
avb5, sequence (P18084 24-799): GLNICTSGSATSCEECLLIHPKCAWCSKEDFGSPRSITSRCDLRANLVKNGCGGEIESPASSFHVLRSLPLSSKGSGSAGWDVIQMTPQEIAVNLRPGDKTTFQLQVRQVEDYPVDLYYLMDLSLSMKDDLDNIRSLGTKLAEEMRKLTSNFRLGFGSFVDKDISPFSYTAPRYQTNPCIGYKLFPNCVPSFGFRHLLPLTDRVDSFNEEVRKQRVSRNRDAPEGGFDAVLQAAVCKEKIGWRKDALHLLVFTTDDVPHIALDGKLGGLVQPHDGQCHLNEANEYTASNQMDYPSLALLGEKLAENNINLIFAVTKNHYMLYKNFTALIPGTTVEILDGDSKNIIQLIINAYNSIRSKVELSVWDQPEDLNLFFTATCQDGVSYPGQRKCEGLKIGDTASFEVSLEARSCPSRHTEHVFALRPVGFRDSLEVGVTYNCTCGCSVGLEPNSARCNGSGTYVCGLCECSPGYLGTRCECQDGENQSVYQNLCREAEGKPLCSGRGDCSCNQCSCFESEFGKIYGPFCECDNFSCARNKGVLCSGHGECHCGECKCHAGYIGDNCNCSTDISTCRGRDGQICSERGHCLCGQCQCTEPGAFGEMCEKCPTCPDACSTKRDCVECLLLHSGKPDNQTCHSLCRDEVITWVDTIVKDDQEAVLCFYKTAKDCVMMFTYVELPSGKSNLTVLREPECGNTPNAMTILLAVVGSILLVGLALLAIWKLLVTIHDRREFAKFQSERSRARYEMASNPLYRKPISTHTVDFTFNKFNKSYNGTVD

[1] = tested on: angiogenesis and tumor growth; test: angiogenesis and tumor growth in vivo
patients with cancer = test: cancer patient studies; format: in vivo, human; settings: various patients with cancer
orthotopic GBM tumors = test: orthotopic brain tumor mouse model; format: in vivo
[2] = tested on: C-RAF S338 phosphorylation; test: C-RAF S338 phosphorylation in brain tumors; format: in vivo; settings: mouse orthotopic model
Excerpt: (§1) These events are associated with reduced cell proliferation in vitro and tumor regression in vivo.

C-RAF Ser338 = C-RAF Ser338 phosphorylation in human glioblastoma cell lines; format: cell-based
Excerpt: as §1

G2/M progression = G2/M progression after cilengitide treatment; format: cell-based
[3] = tested on: orthotopic FG pancreatic tumors; test: orthotopic pancreas cancer xenograft model; format: in vivo, mice
Excerpt: (§2) The longer cells were exposed to erlotinib the greater the expression level of αvβ3 was observed, FIG. 26b. […] Thus, exposure of histologically distinct tumor cells in vitro or in vivo to EGFR inhibitors selects for a tumor cell population expressing high levels of αvβ3.
(§3) In all cases, β3 expressing tumor cells were intrinsically more resistant to EGFR blockade than β3-negative tumor cell lines (FIG. 26e).
(a) Flow cytometric quantification of cell surface markers after 3 weeks treatment with erlotinib (pancreatic and colon cancer cells) or lapatinib (breast cancer cells). (b) Flow cytometric analysis of αvβ3 expression in FG and Miapaca-2 cells following erlotinib. Error bars represent s.d. (n=3 independent experiments). (c) Top, immunofluorescence staining of integrin αvβ3 in tissue specimens obtained from orthotopic pancreatic tumors treated with vehicle (n=3) or erlotinib (n=4). Scale bar, 50 μm. Bottom, Integrin αvβ3 expression was quantified as ratio of integrin αvβ3 pixel area over nuclei pixel area using Metamorph (*P=0.049 using Mann-Whitney U test). (d) Right, intensity (scale 0 to 3) of β3 expression in mouse orthotopic lung tumors treated with vehicle (n=8) or erlotinib (n=7). Left, immunohistochemical staining of β3. Scale bar, 100 μm. […] Results are expressed as % tumor weight compared to vehicle control. *P<0.05. […]

[4] = tested on: H441 human lung adenocarcinoma orthotopic tumors; test: orthotopic lung cancer xenograft model; format: in vivo, mice; settings: systemic erlotinib for 7-8 weeks
Excerpt: as §2
(a) Flow cytometric quantification of cell surface markers after 3 weeks treatment with erlotinib (pancreatic and colon cancer cells) or lapatinib (breast cancer cells). (b) Flow cytometric analysis of αvβ3 expression in FG and Miapaca-2 cells following erlotinib. Error bars represent s.d. (n=3 independent experiments). […] Bottom, Integrin αvβ3 expression was quantified as ratio of integrin αvβ3 pixel area over nuclei pixel area using Metamorph (*P=0.049 using Mann-Whitney U test). […] Results are expressed as % tumor weight compared to vehicle control. *P<0.05.
Immunostaining was performed according to the manufacturer's recommendations (Vector Labs) on […] sections of paraffin-embedded tumors from the orthotopic xenograft pancreas and lung cancer mouse models^14 or from a metastasis tissue array purchased from US Biomax (MET961). […] Sections stained with integrin β3 and active Ral were scored by a H-score according to the staining intensity (SI) on a scale 0 to 3 within the whole tissue section.

PANC-1 cells = test: tumor sphere formation assay; format: cell-based, human; settings: αvβ3 knockdown vs control
Excerpt: as §3
(a) Flow cytometric quantification of cell surface markers after 3 weeks treatment with erlotinib (pancreatic and colon cancer cells) or lapatinib (breast cancer cells). (b) Flow cytometric analysis of αvβ3 expression in FG and Miapaca-2 cells following erlotinib. Error bars represent s.d. (n=3 independent experiments). (c) Top, immunofluorescence staining of integrin αvβ3 in tissue specimens obtained from orthotopic pancreatic tumors treated with vehicle (n=3) or erlotinib (n=4). Scale bar, 50 μm. Bottom, Integrin αvβ3 expression was quantified as ratio of integrin αvβ3 pixel area over nuclei pixel area using Metamorph (*P=0.049 using Mann-Whitney U test). (d) Right, intensity (scale 0 to 3) of β3 expression in mouse orthotopic lung tumors treated with vehicle (n=8) or erlotinib (n=7). Left, immunohistochemical staining of β3. Scale bar, 100 μm. […] (f) Tumor sphere formation assay to establish a dose-response for erlotinib. Error bars represent s.d. (n=3 independent experiments). […] Results are expressed as % tumor weight compared to vehicle control. *P<0.05.
Tumor spheres formation assays were performed essentially as described previously^17. […] Colonies were stained with crystal violet and scored with an Olympus SZH10 microscope.

phosphorylated NF-κB = test: immunoblot analysis of cells grown in suspension and treated with erlotinib; format: cell-based, human; settings: erlotinib 0.5 μM
Method: (§4) In addition, it has been shown that NF-κB signaling is essential for KRAS-driven tumor growth and resistance to EGFR blockade^27-29. This prompted us to ask whether αvβ3 could regulate NF-κB activity through RalB activation and thereby promote tumor cell resistance to EGFR targeted therapy. To test this, tumor cells expressing or lacking integrin αvβ3 and/or RalB were grown in the presence or absence of erlotinib and lysates of these cells were analyzed for activated downstream effectors of RalB. […] NF-κB activity was sufficient to account for EGFR inhibitor resistance since ectopically expressed a constitutively active NF-κB (S276D) in β3-negative FG pancreatic tumor cells^30 conferred resistance to EGFR inhibition, see FIG. 29b). […] Together, our studies describe a role for αvβ3 mediating resistance to EGFR inhibition via RalB activation and its downstream effector NF-κB, opening new avenues to target tumors that are resistant to EGFR targeted therapy, see FIG. 29e.
(§5) Immunoblot analysis of FG, FG-β3 and FG-β3 stably expressing non-silencing or RalB-specific ShRNA, grown in suspension and treated with erlotinib (0.5 μM). pTBK1 refers to phospho-S172 TBK1, p-p65 NF-κB refers to phospho-p65 NF-κB S276, pFAK refers to phospho-FAK Tyr 861. Data are representative of three independent experiments. (b) Tumor spheres formation assay of FG cells ectopically expressing vector control, WT NF-κB FLAG tagged or constitutively active S276D NF-κB FLAG tagged constructs treated with erlotinib (0.5 μM). Error bars represent s.d. (n=3 independent experiments). *P<0.05, **P<0.001, NS=not significant. Immunoblot analysis showing NF-κB WT and S276D NF-κB FLAG transfection efficiency. (c) Tumor spheres formation assay of FG-β3 treating with non-silencing (shCTRL) or NF-κB-specific shRNA and exposed to erlotinib (0.5 μM). Error bars represent s.d. (n=3 independent experiments). *P<0.05, NS=not significant. (d) Dose response in FG-β3 cells treated with erlotinib (10 nM to 5 μM), lenalidomide (10 nM to 5 μM) or a combination of erlotinib (10 nM to 5 μM) and lenalidomide (1 μM). Error bars represent s.d. (n=3 independent experiments). *P<0.05, NS=not significant. (e) Model depicting the integrin αvβ3-mediated EGFR TKI resistance and conquering EGFR TKI resistance pathway and its downstream RalB and NF-κB effectors.
(§6) Cells were lysed in either RIPA lysis buffer (50 mM Tris pH 7.4, 100 mM NaCL, 2 mM EDTA, […], 10% Triton, 0.1% SDS) or Triton lysis buffer (50 mM Tris pH 7.5, 150 mN NaCl, 1 mM EDTA, 5 mM MgCl2, 10% Glycerol, 1% Triton) supplemented with complete protease and phosphatase inhibitor mixtures (Roche) and centrifuged at 13,000 g for 10 min at 4° C. Protein concentration was determined by BCA assay. […]

phosphorylated TBK1 = test: as above; format: cell-based, human; settings: erlotinib 0.5 μM
Method: as §4, §5, §6

Nc1ccn([C@@H]2O[C@H](CO)[C@@H](O)C2(F)F)c(=O)n1 [gemcitabine]
effect of αvβ3 expression on drug resistance (FG and FG-β3 cells): failed to protect cells

N.N.[Cl][Pt][Cl] [cisplatin]
effect of αvβ3 expression on drug resistance (FG and FG-β3 cells): failed to protect cells

CC(C)[C@H]1C(=O)N[C@@H](CCCN=C(N)N)C(=O)NCC(=O)N[C@@H](CC(=O)O)C(=O)N[C@H](Cc2ccccc2)C(=O)N1C [cilengitide]
inhibition of ligand binding to integrin avb3 (avb3): inhibit ligand binding
inhibition of ligand binding to integrin avb3 (avb3; listed as EMD 121974): potent inhibitor
inhibition of ligand binding to integrin avb5 (avb5): inhibit ligand binding
inhibition of ligand binding to integrin avb5 (avb5; listed as EMD 121974): potent inhibitor
angiogenesis and tumor growth in vivo [1]: inhibited angiogenesis and tumor growth
efficacy in cancer patients (patients with cancer): potentially efficacious in some patients
toxicity in cancer patients (patients with cancer): non-toxic
orthotopic GBM tumor vascularization and growth (orthotopic GBM tumors; CD31, Ki-67 and TUNEL staining): inhibits orthotopic GBM tumor vascularization and growth
tumor burden (orthotopic GBM tumors; GBM tumors implanted in the brain): decreases tumor burden
orthotopic GBM tumor burden (orthotopic GBM tumors; sub-optimal doses of cilengitide and radiation combined): synergize to reduce orthotopic GBM tumor burden
C-RAF S338 phosphorylation [2]: blocks C-RAF S338 phosphorylation
C-RAF S338 phosphorylation ([2]; listed as Cilengitide): prevents the activation/phosphorylation of C-RAF Ser338
activation/phosphorylation of C-RAF Ser338 (C-RAF Ser338): prevents the activation/phosphorylation of C-RAF Ser338
G2/M progression (G2/M progression): blocks G2/M progression

C[C@]1(O)C[C@@H](c2nc(-c3ccc4ccc(-c5ccccc5)nc4c3)c3c(N)nccn32)C1 [OSI-906]
effect of αvβ3 expression on drug resistance (FG and FG-β3 cells): induced resistance

C#Cc1cccc(Nc2ncnc3cc(OCCOC)c(OCCOC)cc23)c1 [erlotinib]
increase in αvβ3 expression ([3]; four weeks of erlotinib treatment): 10 fold
effect of ectopic expression of αvβ3 on drug resistance ([3]; orthotopic pancreatic tumors after systemic treatment): dramatically increased erlotinib resistance
integrin αvβ3 expression compared with vehicle-treated tumors [4]: qualitative increase
increase in tumor cell sensitivity on knockdown of αvβ3 (PANC-1 cells): 10 fold
effect of αvβ3 expression on drug resistance (FG and FG-β3 cells): dramatically increased erlotinib resistance
erlotinib sensitivity under genetic or pharmacological inhibition of NF-κB (FG and FG-β3 cells; β3-positive cells, FIG. 29d combination with lenalidomide (1 μM)): completely restored erlotinib sensitivity
levels of phosphorylated NF-κB (phosphorylated NF-κB; αvβ3 negative cells): reduced levels
levels of phosphorylated NF-κB (phosphorylated NF-κB; β3-positive cells): remained activated
levels of phosphorylated TBK1 (phosphorylated TBK1; αvβ3 negative cells): reduced levels
levels of phosphorylated TBK1 (phosphorylated TBK1; β3-positive cells): remained activated
